Test results published in US20240358829A1, “Lymphocyte Population and Methods for Producing Same” (AVM Biotechnology, LLC, priority 2021, published 2024).
Entries after “also recorded” stand apart in the source; their conditions may differ. Where two headings read alike, the source gives them in different places.

Assays:
[1] = tested on: human AVM-NKT cells (human CD56+ cells); assay: Humanized mice orally dosed with DSP (Example 8); assay type: in vivo, mouse; settings: oral HED 18-45 mg/kg, 24-48 hours later
Procedure: BRGSF humanized mice on a Balb/c background from Genoway generated by transplanting human umbilical cord blood CD34+ stem cells into irradiated mice that lack mouse B and T lymphocytes and NK cells but have a functional mouse complement system are orally dosed with HED 18-45 mg/kg DSP.
NCG mice are humanized by adoptive transfer using human umbilical cord blood-derived CD34+ stem cells, following myeloablation treatment. NCG mice from 4 donors (n=2 per donor) are orally dosed with HED 18-45 mg/kg DSP.
huNOG EXL from Taconic have an average of 54% of CD45 cells positive for human CD45. Six huNOG EXL humanized immune system mice from 3 donors (n=2 per donor) are orally dosed with HED 18-45 mg/kg DSP.

[2] = in vivo; cited from earlier work
[3] = tested on: AVM-NKT cells (CD3highCD49b+); assay type: in vivo, mouse; settings: for induction of AVM-NKT cells by comparators: naïve mice, standard Cy/Flu chemotherapy or methylprednisone
Excerpt: Mice were anesthetized with isoflurane gas.

[4] = tested on: peripheral blood lymphocytes; assay: Lymphodepletion study in naïve mice (complete blood count, flow cytometry)
Procedure: For initial lymphodepletion studies, naïve C57Bl/6 mice were treated with 18 mg/kg HED DP by oral gavage. Male C57BL/6 mice were obtained from Taconic Bioscience (Germantown, NY) and acclimated to laboratory conditions for at least one week. […] Each dosed timepoint group was accompanied by a placebo group of the same age and condition according to Table 3. […] When mice reached study timepoint, they were euthanized as follows. Mice were anesthetized with isoflurane gas. Once anesthetized, blood was drawn via cardiac puncture and place immediately in heparin-lined microtubes. 10 mL of 5 U/mL of Heparin/PBS was used for infused by slow push for retrograde perfusion via the abdominal aorta to flush out all remaining blood from the vasculature. Subsequently, 250 μL of blood was transferred to a lavender-topped EDTA-lined microtube and transported to by Lynette Brown at Flow Contract Site Labs (Bothell, WA) for analysis by flow cytometry. The remaining blood was sent to Phoenix Labs (Mukilteo, WA) for Complete Blood Counts and Clinical Chemistries

[5] = tested on: mouse whole blood and splenocytes; assay: Ex vivo/in vitro dexamethasone concentration-response curve
A20 cells = A20 cells treated with high dose dexamethasone in vitro; assay type: cell-based, mouse; settings: 72 hours after high dose dexamethasone treatment in vitro
A20 B cell lymphoma = settings: 18 mg/kg HED
Procedure: FIG. 10B. […] Mice were inoculated with A20 lymphoma 2×10^6 cells in 100 μL of PBS mixed with 100 μL of chilled Matrigel into their flank. Three, 24 and 48 hours later mice were euthanized and tumors, blood, bone marrow and thymus were taken and made into single cell suspensions for flow cytometry detection of live A20 cells.

CD56+γδTCR+iTCR+ cells = assay: AVM0703 R/R NHL clinical trial, whole blood flow cytometry; assay type: in vivo, human; settings: listed as DP
Procedure: FIG. 15. 101-001 size (FSC) and complexity (SSC) scattergram of AVM_NKT cells. […] Blood was stained with panel antibodies based for 15 minutes in the dark at Room Temperature. RBC lysis was performed by addition of 1 mL of 1×BD FACS Lysing Solution (BD Bioscience), diluted with MilliQ water, for 10 minutes in the dark at Room Temperature. Samples were washed with 2 mL 1×DPBS CMF (Gibco) and resuspended in 300 μL of 1×DPBS CMF before 5 μL of 7AAD (Biolegend) was added to each sample for live/dead cell determination and incubated for 5 minutes in the dark at Room Temperature. 250 μL of sample were taken up for acquisition on Macsquant 16 Flow Cytometer (Miltenyi, Serial #40150). Live white blood cells were gated for CD56+ cells co-expressing gamma delta TCR and the invariant TCR and labelled red in the forward versus side scattergram. Red-labelled cells fall within the forward versus side scattergrams where large granular cells such as neutrophils and large granular lymphocytes are known to fall.
For characterisation of the induced/mobilized population of NKT-like cells (AVM-NKT) in humans, whole blood from human subjects was drawn in K2 EDTA Vacutainer tube (367862, BD Biosciences, NJ) and shipped to AVM Biotechnology at room temperature. 100 μl of whole blood was stained with the following antibodies: CD45 AF700 (2D1), CD16 APC (3G8), INKT PECy7 (6B11), CD8 PE (SK1), CD14 FITC (M5E2), CD56 BV650 (5.1H11), γδTCR BV510 (B1), CD19 BV421 (HIB19), NKp44 APC (P44-8) (all from Biolegend, San Diego, CA) and CD3 APCVio770 (BW264/56), (Miltenyi Biotec, San Jose, CA), 7-AAD, (Biolegend, San Diego CA) was included to distinguish the live and dead cells.

R/R NHL = assay: AVM0703 R/R NHL clinical trial, clinical and PET/CT response, survival; assay type: in vivo, human; settings: patient 108-004, 12 mg/kg; listed as DP

## C[C@@H]1C[C@H]2[C@@H]3CCC4=CC(=O)C=C[C@]4(C)[C@@]3(F)[C@@H](O)C[C@]2(C)[C@@]1(O)C(=O)COP(=O)(O)O [DSP, Dexamethasone sodium phosphate]
[1]; BRGSF humanized mice
  cell population corresponding to AVM-NKT cells: can be observed
[1]; HuCD34-NCG mice
  cells corresponding to AVM-NKT cells, % of total splenocytes: 0.2-3%
[1]; huNOG EXL mice
  cells corresponding to AVM-NKT cells, % of total splenocytes: 0.2-3%

## C[C@]12C=CC(=O)C=C1CC[C@@H]1[C@@H]2C(=O)C[C@@]2(C)[C@H]1CC[C@]2(O)C(=O)CO [prednisone]
[2]
  biologic half-life: about 20 hours

## cyclophosphamide/fludarabine [Cy/Flu]
[3]
  induction of AVM-NKT cells by comparators: not induced
[3]; listed as Cyclophosphamide/fludarabine
  induction of AVM-NKT cells by comparators: does not induce
[4]; 13 mg/kg HED cyclophosphamide and 0.8 mg/kg HED fludarabine, 48 hours
  Total NKT cell numbers: no such increase

## C[C@@H]1C[C@H]2[C@@H]3CCC4=CC(=O)C=C[C@]4(C)[C@@]3(F)[C@@H](O)C[C@]2(C)[C@@]1(O)C(=O)CO [dexamethasone base]
[3]; 15 mg/kg HED
  induction of AVM-NKT cells, dose escalation: particularly robust production
[3]; 6+6 mg/kg HED: 6 mg/kg at time 0 and 6 mg/kg 24 hours later
  induction of AVM-NKT cells, dose escalation: particularly robust production
[3]; single dose between 6-12 mg/kg HED
  induction of AVM-NKT cells, dose escalation: can induce AVM-NKT cells
[5]
  human equivalent dose giving an in vivo peak blood concentration of 100 uM: ~2.8 mg/kg
[5]; ex vivo, any concentration (data not shown)
  response of RBCs: no response
[5]; isolated mouse splenocytes and whole blood, 6 hours incubation
  concentration above which apoptosis decreases (biphasic curve): above 100 uM

## C[C@@H]1C[C@H]2[C@@H]3CCC4=CC(=O)C=C[C@]4(C)[C@@]3(F)[C@@H](O)C[C@]2(C)[C@@]1(O)C(=O)CO [dexamethasone]
[3]; normal mice, after dexamethasone dosing
  time to induction of AVM-NKT cells in the spleen: ≤ 48 h
A20 cells
  apoptosis of A20 cells: about 30%
[4]; 18 mg/kg HED DP, 18 mg/kg
  platelet numbers: spared; also recorded: does not affect
[4]; 18 mg/kg HED DP, 6 hours to 35 days, 18 mg/kg
  number of live hematopoietic stem cells: spared or increased; also recorded: does not significantly alter
[4]; high-dose dexamethasone
  Basophils: reduced only at the 6 hour time point
  MSCs: spared or increased
  RBCs: spared
  eosinophils: reduced only at the 24 and 48 hour time points

## C[C@@H]1C[C@H]2[C@@H]3CCC4=CC(=O)C=C[C@]4(C)[C@@]3(F)[C@@H](O)C[C@]2(C)[C@@]1(O)C(=O)COP(=O)(O)O [dexamethasone phosphate, Dexamethasone phosphate, reference compound]
A20 B cell lymphoma
  time of maximal ablation of A20 lymphoma implanted in the flank: ≤ 3 h
  time of maximal eradication of A20 metastasis to blood and thymus: 24 h
  time of maximal eradication of A20 metastasis to bone marrow: 48 h
CD56+γδTCR+iTCR+ cells; patient 103-005, 9 mg/kg, 1 hour post-infusion
  CD56+ γδTCR+ iTCR+ cells/uL: 22 cells/uL
CD56+γδTCR+iTCR+ cells; patient 108-004, 12 mg/kg, one hour, 3 days or 14 days after infusion (pre-infusion 0.09%, 4.6 cells/uL)
  CD56+γδTCR+invTCR+ cells in blood: no evidence
R/R NHL
  objective beneficial response (PET/CT, clinical chemistries, CBCs or clinical symptoms): did not have a clinical response

## methylprednisone
[3]
  induction of AVM-NKT cells by comparators: not induced
